Results published in US10576456B2, “Systems and methods of preparing stabilized lipid assemblies” (ARIZONA BOARD OF REGENTS ON BEHALF OF THE UNIVERSITY OF …, priority 2014, dated 2020).

Columns and labels:
[1] = Frontal chromatography retention on poly(bis-SorbPC)-coated silica; assay type: physicochemical; conditions: PBS pH 7.4, 1 μL min^−1, 100 μM sample
Experimental: (§1) Particles were packed in capillaries (50 μm or 75 μ[…].; Polymicro Technologies, Phoenix, Ariz.) against Microtight filter assemblies (Upchurch Scientific, Oak Harbor, Wash.). […] Frontal chromatography was performed using a lab-built instrument. Isocratic elution with PBS, pH 7.4, as the mobile phase utilized pressure driven flow that was applied by a Micropro Syringe Pumping System (Eldex, Napa, Calif.) connected to a […] injection valve (Valco, Houston, Tex.) with a 600 nL sample loop. […] The elution profile was monitored by ultraviolet absorbance detection (Model 500 Detector, ChromTech, Apple Valley, Minn.) at 220 nm. Signal from the detector was collected with an A/D converter (NI USB-6221, National Instruments, Austin, Tex.) and software written in LabVIEW (National Instruments). […] Statistical significance was determined using the two-tailed Student's t-test.

[2] = Frontal chromatography retention on bare silica; assay type: physicochemical; conditions: PBS pH 7.4, 1 μL min^−1, 100 μM sample
Experimental: as §1

[3] = TIRFM measurement of Alexa 488-CTB binding to GM1 in polymerized bis-SorbPC PSLB; conditions: 1 mol % GM1; 1 h static incubation
Experimental: Phosphate buffered saline (PBS) was used to measure the background. Alexa 488-CTB solutions (500 μL) were then injected into the flow cell, sequentially from the lowest concentration to the highest. One hour of static incubation after each injection, the fluorescent signal from GM1-bound Alexa 488-CTB was then measured. The fluorescent signal from dissolved Alexa 488-CTB was negligible so the dissolved protein solution was not flushed from the cell before each measurement. The solid line is a fit of the data to the Hill equation.
CTB labeled with Alexa Fluor 488 (Alexa 488-CTB) was purchased from Invitrogen (Eugene, Oreg.). Total internal reflection fluorescence microscopy (TIRFM) was used to measure the binding of Alexa 488-CTB to 1 mol % GM1 in a polymerized bis-SorbPC PSLB. The TIRFM system has been described previously. The 488 nm line of an Ar^+ laser (Ion Laser Technology) was coupled into a fused silica slide using a 45° prism (Edmund Optics). […] One of the internal reflections at the upper surface of the slide was used to excite fluorescence from Alexa 488-CTB bound to the PSLB. The fluorescence signal was collected using a 4× objective, directed through a 535DF35 (Omega Optical, Brattleboro, Vt.) band pass filter, and detected using CCD (Andor Technology USA, South Windsor, Conn.).

Molecule	Retention time [1]	Retention time [2]	dissolved concentration that saturates the PSLB [3]
CC(=O)Oc1ccccc1C(=O)O [Acetylsalicylic acid]	14.6 ± 0.6 min	10.1 ± 0.2 min	–
O=C(O)c1ccccc1 [Benzoic acid]	14.1 ± 0.1 min	9.6 ± 0.2 min	–
O=C(O)c1ccccc1O [Salicylic acid]	14.3 ± 0.1 min	9.7 ± 0.1 min	–
Alexa 488-CTB: CTB labeled with Alexa Fluor 488	–	–	approximately 0.1 μM
